# Experimental data: US12391679B2, “Benzamide-substituted bicyclic imidazo- and pyrazolo-fused -pyridine, -pyrimide, and -pyridazine compounds for treatment of inflammatory diseases” (ONCO3R Therapeutics BV, priority 2019, dated 2025)
# How the values were obtained:
# B10.RIII mice, IL-23 EEV = experiment: Murine model of psoriatic arthritis induced by overexpression of IL-23; type: in vivo; settings: mouse, IL-23 overexpression
# Source text: Mouse IL-23 enhanced episomal expression vector (EEV) was obtained from System Biosciences (Cat #EEV651A-1). Mouse IL-23 Quantikine ELISA Kits were obtained from R&D Systems (Cat #M2300). ProSense® 680 and OsteoSense® 750EX were obtained from PerkinElmer (Cat #NEV10003 and NEV10053EX). RNAlater® was obtained from Ambion (Cat #AM7021). Imalgene® 1000 (Merial) and Rompun® 2% (Bayer) were obtained from Centravet (Cat #IMA004-6827812 and ROM001-6835444).
# B10.RIII mice (male, 8-week old) were obtained from Charles River (Écully, France). Mice were kept on a 12 h light/dark cycle. Temperature was maintained at 22±2° C., food and water were provided ad libitum.
# The design of the study is adapted from Sherlock J P. et al. (Sherlock et al. 2012).
# On the first day (D1), the mice underwent a hydrodynamic injection of Ringer or IL-23 EEV in Ringer into the tail vein.
# As of D5, twice a week, the mice were scored for clinical symptoms until the end of the experiment.
# On D5, blood was collected by puncture in the submandibular vein to assess the serum IL-23 concentration.
# On D9, mice from all groups received ProSense® 680 probe (0.8 nmol/10 g, i.p.). On D10, the mice were anesthetized. Granulocyte infiltration was then measured using in vivo molecular imaging (Bruker In-Vivo Xtreme imaging system).
# On D11, randomization was performed according to ProSense® 680 molecular imaging and scoring.
# As of D12, mice were dosed with test compound or with vehicle.
# On D36, mice from all groups were sacrificed 2 h after last administration of compound.
# Twice weekly, clinical signs of inflammation were scored: 0 for normal paw; 1 if swelling of one digit; 2 if swelling of two or more digits; 3 if swelling of the entire paw. The scores of all limbs were summed up to produce a global score.
# There were 10 mice per group. The results are expressed as mean±SEM and statistical analysis is performed using one-way ANOVA followed by Dunnett's post-hoc test versus diseased vehicle group for scoring and imaging analysis, versus sham vehicle group for body weight.
# SIK2 = target: T1, SIK2 (Homo sapiens, UniProt Q9H0K1); experiment: 33P radioactive kinase assay, SIK2; type: biochemical; also: AMARA 5 µM, 10 µM ATP
# T1 construct: purchased ThermoFisher Scientific PV4792
# T1 sequence (Q9H0K1 whole entry): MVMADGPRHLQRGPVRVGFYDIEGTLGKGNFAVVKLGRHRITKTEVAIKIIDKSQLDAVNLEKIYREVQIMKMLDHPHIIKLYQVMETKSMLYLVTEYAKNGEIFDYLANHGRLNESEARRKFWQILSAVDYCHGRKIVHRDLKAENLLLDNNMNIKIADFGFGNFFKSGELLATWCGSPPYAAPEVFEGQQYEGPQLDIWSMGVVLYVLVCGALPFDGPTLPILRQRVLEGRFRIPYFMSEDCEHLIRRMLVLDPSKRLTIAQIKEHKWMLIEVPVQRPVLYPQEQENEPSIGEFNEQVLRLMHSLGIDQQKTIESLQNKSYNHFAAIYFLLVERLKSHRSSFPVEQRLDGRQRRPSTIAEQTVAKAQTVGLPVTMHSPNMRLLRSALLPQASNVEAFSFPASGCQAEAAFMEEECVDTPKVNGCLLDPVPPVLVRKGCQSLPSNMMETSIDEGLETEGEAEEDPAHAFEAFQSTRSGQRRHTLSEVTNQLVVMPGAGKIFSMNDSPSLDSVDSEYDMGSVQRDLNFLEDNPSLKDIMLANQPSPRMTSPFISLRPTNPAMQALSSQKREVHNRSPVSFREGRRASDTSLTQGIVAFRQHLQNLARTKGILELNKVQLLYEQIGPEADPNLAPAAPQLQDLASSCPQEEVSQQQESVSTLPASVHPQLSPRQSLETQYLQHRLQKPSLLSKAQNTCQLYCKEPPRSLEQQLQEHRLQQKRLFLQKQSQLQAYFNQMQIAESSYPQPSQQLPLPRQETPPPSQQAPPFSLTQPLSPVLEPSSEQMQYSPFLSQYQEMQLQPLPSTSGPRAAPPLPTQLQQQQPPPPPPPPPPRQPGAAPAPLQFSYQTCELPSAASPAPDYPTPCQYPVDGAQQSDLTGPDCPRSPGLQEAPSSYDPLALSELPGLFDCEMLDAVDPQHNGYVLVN
# Procedure: The principle of the ^33P radioactive kinase assay consists in measuring the incorporated ^33P into the substrate AMARA peptide when phosphorylated by SIK1, SIK2 or SIK3 using [^33P]-g-ATP, which correlates with kinase activity.
# The test compounds are prepared as a serial dilution of 10 point dose responses with 1/5 dilution steps in 100% DMSO starting from 2 mM highest concentration, diluted 1/20 in water and 5 μL is transferred to the assay plates (Greiner, Cat #651201).
# 1% DMSO and 10 μM staurosporine final concentrations are used as negative and positive controls.
# 11 μL of enzyme-substrate mixture is added on the assay plates. The reactions are started by adding 9 μL ATP mixture, consisting of non-labeled and ^33P-labeled ATP, on the assay plates.
# The reactions are stopped by adding 25 μL phosphoric acid (150 mM) to the reactions.
# The completely terminated kinase reactions are transferred using a harvester on pre-wetted UniFilter-96 plates (UniFilter-96 GF/B, PerkinElmer Inc., Cat #6005177).
# After harvesting the kinase reactions, the filter plates are washed 6 times with phosphoric acid (75 mM). The back of the UniFilter-96 plates are sealed and 40 μL MicroScint-20 (PerkinElmer Inc., Cat #6013621) is added to each well. The top of the plates are sealed with TopSeal-A. Read-out is performed with a TopCount instrument (PerkinElmer Inc.).
# Raw data are generated following the read-out performed on the TopCount, plotted to generate dose response curves to calculate percentage inhibition (PIN) and average IC50 for each SIK homologue which are reported in the table below.
# mouse CIA model = experiment: Collagen induced arthritis (CIA) model; type: in vivo
# Procedure: Completed Freund's adjuvant (CFA) and incomplete Freund's adjuvant (IFA) were purchased from Difco. Bovine collagen type II (CII), lipopolysaccharide (LPS), and Enbrel® (etanercept) were obtained from Chondrex (L'Isle d'Abeau, France); Sigma (P4252, L'Isle d'Abeau, France), Wyeth (25 mg injectable syringe, France), respectively. All other reagents used were of reagent grade and all solvents were of analytical grade.
# DBA1/J mice (male, 7-8 weeks old) were obtained from Charles River Laboratories (Écully, France). Mice were kept on a 12 h light/dark cycle. Temperature was maintained at 22° C., and food and water were provided ad libitum.
# One day before the experiment, CII solution (2 mg/mL) was prepared with 0.05 M AcOH and stored at 4° C. Just before the immunization, equal volumes of adjuvant (IFA) and CII were mixed by a homogenizer in a pre-cooled glass bottle in an ice water bath. Extra adjuvant and prolonged homogenization may be required if an emulsion is not formed. 0.2 mL of the emulsion was injected intradermally at the base of the tail of each mouse on day 1, a second booster intradermal injection (CII solution at 2 mg/mL in […] 0.1 mL saline) was performed on […]. This immunization method was modified from published methods (Jou et al. 2005; Sims et al. 2004).
# The therapeutic effects of the compounds were tested in the mouse CIA model. Mice were randomly divided into equal groups and each group contained 10 mice. All mice were immunized on day 1 and boosted on day 21. The negative control group was treated with vehicle (MC 0.5%) and the positive control group with Enbrel® (10 mg/kg, 3× week, sc). A compound of interest was typically tested at 3 doses per os (p.o.). At day 32, randomization between groups was performed with respect with clinical score and animals were therapeutically treated regarding their group until day 47. Body weight and clinical score, were recorded at least twice a week.
# Arthritis is scored according to the method of Khachigian 2006, Lin et al 2007 and Nishida et al. 2004 (Khachigian 2006; Lin et al. 2007; Nishida et al. 2004). […]
smiles,measurement,setting,value
"COc1cc(-c2cnc3cc(C(C)(C)C#N)ccn23)cc(OC(F)F)c1C(=O)NC1CC1 [Cpd 19, 4-[7-(1-cyano-1-methyl-ethyl)imidazo[1,2-a]pyridin-3-yl]-N-cyclopropyl-2-(difluoromethoxy)-6-methoxy-benzamide]",clinical score compared to diseased vehicle group,"B10.RIII mice, IL-23 EEV; 10 mg/kg p.o. b.i.d.",statistically significant decrease
same,IC50,SIK2,> 500 nM
"CCC(C)(C#N)c1ccn2c(-c3cc(OC)c(C(=O)NC4CC4)c(OC(F)F)c3)cnc2c1 (centres unmarked) [Cpd 27, 4-[7-(1-cyano-1-methyl-propyl)imidazo[1,2-a]pyridin-3-yl]-N-cyclopropyl-2-(difluoromethoxy)-6-methoxy-benzamide]",IC50,SIK2,> 500 nM
"COc1cc(-c2cnc3cc(C(C)(C)C#N)ccn23)cc(OC)c1C(=O)NC1CC1 [Cpd 28, 4-[7-(1-cyano-1-methyl-ethyl)imidazo[1,2-a]pyridin-3-yl]-N-cyclopropyl-2,6-dimethoxy-benzamide]",IC50,SIK2,> 500 nM
"COc1cc(-c2cnc3cc(C4(C#N)CC4)ccn23)cc(OC(F)F)c1C(=O)NC1CC1 [Cpd 33, 4-[7-(1-cyanocyclopropyl)imidazo[1,2-a]pyridin-3-yl]-N-cyclopropyl-2-(difluoromethoxy)-6-methoxy-benzamide]",IC50,SIK2,10 to 100 nM
"COc1cc(-c2cnc3cc(C4COC4)ccn23)cc(OC(F)F)c1C(=O)NC1CC1 [Cpd 174, N-cyclopropyl-2-(difluoromethoxy)-6-methoxy-4-[7-(oxetan-3-yl)imidazo[1,2-a]pyridin-3-yl]benzamide]",clinical score compared to the vehicle group,mouse CIA model; 60 mg/kg p.o. b.i.d.,statistically significant decrease
same,clinical score compared to diseased vehicle group,"B10.RIII mice, IL-23 EEV; 30 mg/kg p.o. b.i.d.",statistically significant decrease
"COc1cc(-c2cnn3cc(C(C)(C)C#N)ccc23)cc(OC(F)F)c1C(=O)N[C@@H]1C[C@@H]1F [Cpd 219, 4-[6-(1-cyano-1-methyl-ethyl)pyrazolo[1,5-a]pyridin-3-yl]-2-(difluoromethoxy)-N-[(1R,2S)-2-fluorocyclopropyl]-6-methoxy-benzamide]",clinical score compared to the vehicle group,mouse CIA model; 3 mg/kg p.o. b.i.d.,statistically significant decrease
same,clinical score compared to diseased vehicle group,"B10.RIII mice, IL-23 EEV; 3 mg/kg p.o. b.i.d.",statistically significant decrease
"COc1cc(-c2cnn3cc(C4(N)CCC4)ccc23)cc(OC(F)F)c1C(=O)N[C@@H]1C[C@@H]1F [Cpd 261, 4-[6-(1-aminocyclobutyl)pyrazolo[1,5-a]pyridin-3-yl]-2-(difluoromethoxy)-N-[(1R,2S)-2-fluorocyclopropyl]-6-methoxy-benzamide]",clinical score compared to the vehicle group,mouse CIA model; 30 mg/kg p.o. b.i.d.,statistically significant decrease
same,clinical score compared to diseased vehicle group,"B10.RIII mice, IL-23 EEV; 50 mg/kg p.o. b.i.d.",statistically significant decrease
